Results: patent publication US20230027066A1 (Urovant Sciences GmbH, priority 2019, published 2023)
Read-outs that look alike come from different tables or passages of the source.

Key:
[1] = QT Study/Label April 2018, cited from earlier work
CYP2D6 = CYP2D6 (Homo sapiens, UniProt P10635); assay: drug interaction study of vibegron and metoprolol succinate (moderately sensitive CYP2D6 substrate); format: in vivo; set-up: from tissue; host or cells: in vivo, healthy adult human subjects (endogenous enzyme)
[2] = 50 mg repeat-dose, healthy subjects
[3] = human, plasma, metoprolol 100 mg alone
[4] = metoprolol 100 mg, vibegron 75 mg

Chain of CYP2D6 (P10635 whole entry): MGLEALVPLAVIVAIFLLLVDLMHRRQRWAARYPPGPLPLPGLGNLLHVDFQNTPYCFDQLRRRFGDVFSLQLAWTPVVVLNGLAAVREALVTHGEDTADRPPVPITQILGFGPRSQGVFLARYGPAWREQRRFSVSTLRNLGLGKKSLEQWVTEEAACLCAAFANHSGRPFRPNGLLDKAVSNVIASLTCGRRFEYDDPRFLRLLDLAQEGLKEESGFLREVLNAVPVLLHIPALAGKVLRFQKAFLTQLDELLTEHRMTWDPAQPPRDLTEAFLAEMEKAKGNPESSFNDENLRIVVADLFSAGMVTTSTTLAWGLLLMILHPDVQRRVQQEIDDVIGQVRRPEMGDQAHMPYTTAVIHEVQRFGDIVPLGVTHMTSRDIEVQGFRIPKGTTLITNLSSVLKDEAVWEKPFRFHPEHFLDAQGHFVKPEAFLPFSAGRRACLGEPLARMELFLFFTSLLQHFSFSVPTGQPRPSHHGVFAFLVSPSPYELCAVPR

Row | Structure (SMILES) | SBP change 24-hour average, placebo adjusted [1, 2] | SBP change Maximum mean, placebo adjusted [1, 2] | SBP change 24-hour average, placebo adjusted ([1]; 100 mg repeat-dose, healthy subjects) | SBP change 24-hour average, placebo adjusted ([1]; 200 mg repeat-dose, healthy subjects) | HR change Maximum mean, placebo adjusted ([1]; first of doses 50, 100, 200 mg repeat-dose (doses from the Doses line)) | HR change Maximum mean, placebo adjusted ([1]; second of doses 50, 100, 200 mg repeat-dose (doses from the Doses line)) | HR change Maximum mean, placebo adjusted ([1]; third of doses 50, 100, 200 mg repeat-dose (doses from the Doses line)) | AUC(0-inf) (CYP2D6; [3]) | Cmax (CYP2D6; [3]) | half-life (CYP2D6; human, plasma, metoprolol 100 mg alone, read-out: t1/2, GM (% CV) (converted)) | AUC0-∞, ratio of GLS mean metoprolol + vibegron/metoprolol alone (CYP2D6; [4]) | Cmax, ratio of GLS mean metoprolol + vibegron/metoprolol alone (CYP2D6; [4])
1 | Nc1nc(CC(=O)Nc2ccc(CCNC[C@H](O)c3ccccc3)cc2)cs1 [Mirabegron, mirabegron] | +3.0 mmHg | Maximum mean +4.0 mmHg | +5.5 mmHg | +9.7 mmHg | 6.7 bpm | 11 bpm | 17 bpm |  |  |  |  | 
2 | COCCc1ccc(OCC(O)CNC(C)C)cc1 (stereo not drawn) [Metoprolol, metoprolol succinate] |  |  |  |  |  |  |  | 384 ng·h/mL | 21.9 ng/mL | 9.5 h | 1.40 | 1.49
